Inconclusive results and toxic doses are left out. No stated cut-off is given here; in the data, active means T/C of 150% or more; inactive means T/C below 125%.
Tested on: L1210 leukemia ip in BDF1 mice, survival T/C
Test: NCI In Vivo Anticancer Drug Screen. Data for tumor model L1210 Leukemia (intraperitoneal) in B6D2F1 (BDF1) mice
Conditions: endpoint: mean survival time, higher = longer survival
Procedure, shortened: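 Survival endpoint. Drug-treated group vs vehicle group, expressed as T divided by C. Tumor passaged by transplantation.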

[1] = dose: 100.0 mg/kg/injection, schedule: Q01DX001 (ip), vehicle: carboxymethylcellulose (CMC)
[2] = dose: 200.0 mg/kg/injection, schedule: Q01DX001 (ip), vehicle: carboxymethylcellulose (CMC)
[3] = dose: 400.0 mg/kg/injection, schedule: Q01DX001 (ip), vehicle: carboxymethylcellulose (CMC)
[4] = dose: 100.0 mg/kg/injection, schedule: Q04DX003 (ip), vehicle: saline with Tween-80
[5] = dose: 200.0 mg/kg/injection, schedule: Q04DX003 (ip), vehicle: saline with Tween-80
[6] = dose: 400.0 mg/kg/injection, schedule: Q04DX003 (ip), vehicle: saline with Tween-80
[7] = dose: 100.0 mg/kg/injection, schedule: Q01DX009 (ip), vehicle: saline with Tween-80
[8] = dose: 200.0 mg/kg/injection, schedule: Q01DX009 (ip), vehicle: saline with Tween-80
[9] = dose: 100.0 mg/kg/injection, schedule: Q04DX003 (ip), vehicle: Klucel (hydroxypropylcellulose) (HPC)
[10] = dose: 200.0 mg/kg/injection, schedule: Q04DX003 (ip), vehicle: Klucel (hydroxypropylcellulose) (HPC)
[11] = dose: 400.0 mg/kg/injection, schedule: Q04DX003 (ip), vehicle: Klucel (hydroxypropylcellulose) (HPC)
[12] = dose: 100.0 mg/kg/injection, schedule: Q01DX009 (ip), vehicle: Klucel (hydroxypropylcellulose) (HPC)
[13] = dose: 200.0 mg/kg/injection, schedule: Q01DX009 (ip), vehicle: Klucel (hydroxypropylcellulose) (HPC)
[14] = dose: 400.0 mg/kg/injection, schedule: Q01DX009 (ip), vehicle: Klucel (hydroxypropylcellulose) (HPC)
[15] = dose: 100.0 mg/kg/injection, schedule: Q04DX002 (ip), vehicle: Klucel (hydroxypropylcellulose) (HPC)
[16] = dose: 200.0 mg/kg/injection, schedule: Q04DX002 (ip), vehicle: Klucel (hydroxypropylcellulose) (HPC)

Measured: T/C

CCNP(=O)(OCC)OCC
inactive: dose: 50.0 mg/kg/injection, schedule: Q01DX001 (ip), vehicle: carboxymethylcellulose (CMC) 94 % of control | [1] 92 % of control | [2] 94 % of control | [3] 118 % of control

Oc1ccc2ccccc2c1N=Nc1ccc(F)cc1
inactive: dose: 25.0 mg/kg/injection, schedule: Q01DX015 (ip), vehicle: saline 101 % of control | dose: 50.0 mg/kg/injection, schedule: Q01DX015 (ip), vehicle: saline 96 % of control | dose: 60.0 mg/kg/injection, schedule: Q01DX015 (ip), vehicle: carboxymethylcellulose (CMC) 109 % of control | [1] 92 % of control | dose: 100.0 mg/kg/injection, schedule: Q01DX009 (ip), vehicle: carboxymethylcellulose (CMC) 95 % of control | dose: 100.0 mg/kg/injection, schedule: Q01DX015 (ip), vehicle: saline 96 % of control | dose: 100.0 mg/kg/injection, schedule: Q04DX003 (ip), vehicle: carboxymethylcellulose (CMC) 114 % of control | dose: 120.0 mg/kg/injection, schedule: Q01DX015 (ip), vehicle: carboxymethylcellulose (CMC) 104 % of control | [2] 92 % of control | dose: 200.0 mg/kg/injection, schedule: Q01DX009 (ip), vehicle: carboxymethylcellulose (CMC) 95 % of control | dose: 200.0 mg/kg/injection, schedule: Q01DX015 (ip), vehicle: saline 101 % of control | dose: 200.0 mg/kg/injection, schedule: Q04DX003 (ip), vehicle: carboxymethylcellulose (CMC) 97 % of control | dose: 240.0 mg/kg/injection, schedule: Q01DX015 (ip), vehicle: carboxymethylcellulose (CMC) 95 % of control | [3] 89 % of control | dose: 400.0 mg/kg/injection, schedule: Q01DX015 (ip), vehicle: saline 101 % of control | dose: 400.0 mg/kg/injection, schedule: Q04DX003 (ip), vehicle: carboxymethylcellulose (CMC) 100 % of control | dose: 480.0 mg/kg/injection, schedule: Q01DX015 (ip), vehicle: carboxymethylcellulose (CMC) 96 % of control

C(=N\n1cnnc1)/c1ccc2c(c1)CCC2
inactive: [4] 94 % of control | [5] 112 % of control | [6] 98 % of control

ClCc1cc(OCc2ccccc2)ccc1OCc1ccccc1
inactive: dose: 75.0 mg/kg/injection, schedule: Q04DX003 (ip), vehicle: Klucel (hydroxypropylcellulose) (HPC) 86 % of control | dose: 100.0 mg/kg/injection, schedule: Q01DX001 (ip), vehicle: Klucel (hydroxypropylcellulose) (HPC) 101 % of control | dose: 150.0 mg/kg/injection, schedule: Q04DX003 (ip), vehicle: Klucel (hydroxypropylcellulose) (HPC) 91 % of control | dose: 200.0 mg/kg/injection, schedule: Q01DX001 (ip), vehicle: Klucel (hydroxypropylcellulose) (HPC) 94 % of control | dose: 300.0 mg/kg/injection, schedule: Q04DX003 (ip), vehicle: Klucel (hydroxypropylcellulose) (HPC) 86 % of control | dose: 400.0 mg/kg/injection, schedule: Q01DX001 (ip), vehicle: Klucel (hydroxypropylcellulose) (HPC) 97 % of control

Cc1cc2c(cc1C)C(=O)OC2=O
inactive: [7] 102 % of control | [8] 98 % of control | dose: 400.0 mg/kg/injection, schedule: Q01DX009 (ip), vehicle: saline with Tween-80 100 % of control

N#CC(C#N)=C1CCSc2ccc(Cl)cc21
inactive: dose: 100.0 mg/kg/injection, schedule: Q01DX001 (ip), vehicle: saline 94 % of control | dose: 200.0 mg/kg/injection, schedule: Q01DX001 (ip), vehicle: saline 97 % of control | dose: 400.0 mg/kg/injection, schedule: Q01DX001 (ip), vehicle: saline 90 % of control

CCCCCCCCCCCCCCCCNC(=O)c1cc([N+](=O)[O-])ccc1C(=O)O
inactive: [9] 95 % of control | [10] 95 % of control | [11] 97 % of control

CCOC(=O)/C=C/C(=O)N(C)c1ccccc1
inactive: dose: 100.0 mg/kg/injection, schedule: Q01DX001 (ip), vehicle: other 100 % of control | dose: 200.0 mg/kg/injection, schedule: Q01DX001 (ip), vehicle: other 100 % of control | dose: 400.0 mg/kg/injection, schedule: Q01DX001 (ip), vehicle: other 108 % of control

O=C(NCCCl)NCc1ccccc1
inactive: [9] 103 % of control | [10] 107 % of control | [11] 113 % of control

CC(C(=O)O)N1C(=O)c2ccccc2C1=O (stereo not drawn)
inactive: [12] 93 % of control | [9] 92 % of control | [13] 95 % of control | [10] 97 % of control | [14] 90 % of control | [11] 94 % of control

CCCCCCCCCCCCNC(=S)NCCCC
inactive: dose: 50.0 mg/kg/injection, schedule: Q04DX002 (ip), vehicle: Klucel (hydroxypropylcellulose) (HPC) 91 % of control | [15] 95 % of control | [16] 98 % of control

O=c1oc2ccccc2c(O)c1C(c1ccc(C(c2c(O)c3ccccc3oc2=O)c2c(O)c3ccccc3oc2=O)cc1)c1c(O)c2ccccc2oc1=O
inactive: [9] 105 % of control | [10] 99 % of control | [11] 93 % of control

Oc1ccccc1SSc1ccccc1O
inactive: dose: 50.0 mg/kg/injection, schedule: Q01DX009 (ip), vehicle: saline with Tween-80 100 % of control | [7] 104 % of control | [8] 103 % of control

Cc1ccccc1OP(=S)(NN)Oc1ccccc1C
inactive: [15] 93 % of control | [16] 100 % of control | dose: 400.0 mg/kg/injection, schedule: Q04DX002 (ip), vehicle: Klucel (hydroxypropylcellulose) (HPC) 100 % of control

OCCNc1nc2ccccc2c2ccccc12
inactive: dose: 75.0 mg/kg/injection, schedule: Q01DX001 (ip), vehicle: carboxymethylcellulose (CMC) 98 % of control | dose: 150.0 mg/kg/injection, schedule: Q01DX001 (ip), vehicle: carboxymethylcellulose (CMC) 112 % of control

O=C(O)c1ccc(-c2ccc(C(=O)O)cc2I)c(I)c1
inactive: [7] 92 % of control | [4] 91 % of control | [8] 87 % of control | [5] 96 % of control | [6] 94 % of control

CN(C)C(C)(C)CO
inactive: dose: 100.0 mg/kg/injection, schedule: Q01DX009 (ip), vehicle: saline 98 % of control | dose: 100.0 mg/kg/injection, schedule: Q04DX003 (ip), vehicle: saline 96 % of control | dose: 200.0 mg/kg/injection, schedule: Q01DX009 (ip), vehicle: saline 98 % of control | dose: 200.0 mg/kg/injection, schedule: Q04DX003 (ip), vehicle: saline 98 % of control | dose: 400.0 mg/kg/injection, schedule: Q04DX003 (ip), vehicle: saline 101 % of control

BrC1=C(c2ccccc2)C2CCCCC2C1(Br)c1ccccc1 (stereo not drawn)
inactive: [12] 103 % of control | [13] 105 % of control | [14] 114 % of control

Reference: PubChem BioAssay AID248 (DTP/NCI, 2004)
